Tests used:
[1] = for NUMBER OF IDENTIFIED REACTIVE METABOLITES (EXAMPLES): rat, 60 min, 10 μmol/L, pH 7.4
Description: (§1) NADPH (20 mmol/L, […]) was added to the pre-incubated incubation mixture and a reaction (incubation) was started. The final incubation volume was 1 mL. A sample containing no object compound was used as a control.
After incubation at 37° C. for 60 minutes, a 50 mmol/L aqueous dithiothreitol solution (100 μL, 5 μmol) was added to the incubation mixture, and the resultant mixture was subjected to centrifugation at 10,000 g for 5 minutes. The centrifugation supernatant was added to a solid phase extraction column (OASIS HLB 1 cc, 30 mg) that was pre-washed with 1 mL of methanol and activated with 1 mL of purified water. The column was washed with 1 mL of water and 1 mL of 5% methanol solution, and a reaction product was eluted with 1 mL of methanol. The solvent was removed by evaporation under nitrogen flow, and the residue was dissolved in 150 μL of acetonitrile:water (2:8) to prepare an analysis sample.
An AQCUITY UPLC system (WATERS) was used for separation by chromatography. Aliquots (10 μL) of the prepared analysis sample was injected into an AQCUITY UPLC BEH C18 column (2.1×100 mm, 1.7 μm). The separation by chromatography was performed under gradient conditions shown in the following table at a mobile phase flow rate of 0.5 mL/minute.
(§2) The LC column eluate obtained in step 2-1 was introduced into an LTQ XL ion trap mass spectrometer. Ionization was performed in an ESI positive mode (a mode for detecting positively charged ions). The measurement conditions used are shown below (measurement conditions A).
The measurement conditions used are shown below (measurement conditions B).
Among the peaks appearing in the final chromatogram, peaks other than the peaks also appearing in the final chromatogram for the control (FIG. 2 or 13) are considered to be the peaks of trapping agent-reactive metabolite adducts.

[2] = Reactive metabolite trapping test with glutathione ethyl ester only, data dependent scan mode with Dynamic Exclusion ON (Comparative Example 8); format: in vitro ADME; settings: rat liver microsomes
Description: Omeprazole was used as the object compound. Measurement was performed in the same manner as in Comparative Example 1 except that the MS/MS measurement corresponding to (step 2-3) was performed in a data dependent scan mode (a Dynamic Exclusion ON mode) in which the MS/MS measurement was performed on ions in descending order of intensity. In the data dependent scan mode (Dynamic Exclusion ON mode), ions for a peak with the strongest intensity among the peaks in a first spectrum are subjected to MS/MS measurement three times. Then these ions are eliminated, and ions with the next strongest intensity are subjected to MS/MS measurement three times. This processing is repeated in order of intensity. The measurement conditions used are as follows (measurement conditions D).

[3] = rat, 60 min, 10 μmol/L, pH 7.4
Description: as §1
After incubation at 37° C. for 60 minutes, the resultant mixture was subjected to centrifugation at 10,000 g for 5 minutes. The centrifugation supernatant was added to a solid phase extraction column (OASIS HLB 1 cc, 30 mg) that was pre-washed with 1 mL of methanol and activated with 1 mL of purified water. The column was washed with 1 mL of water and 1 mL of 5% methanol water, and a reaction product was eluted with 1 mL of methanol. The solvent was removed by evaporation under nitrogen flow, and the residue was dissolved in 150 μL of acetonitrile:water (2:8) to prepare an analysis sample.
An AQCUITY UPLC system (WATERS) was used for separation by chromatography. Aliquots (10 μL) of the prepared analysis sample was injected into an AQCUITY UPLC BEH C18 column (2.1×100 mm, 1.7 μm). The separation by chromatography was performed under the gradient conditions shown in TABLE 3 at a mobile phase flow rate of 0.5 mL/minute.
as §2
The measurement conditions used are shown below (measurement conditions E).
Among the peaks appearing in the final chromatogram, peaks other than the peaks also appearing in the final chromatogram for the control (FIG. 46) are considered to be the peaks of trapping agent-reactive metabolite adducts.

[4] = rat, 60 min, 10 μmol/L, pH 7.4; remark: listed apart in the source
Description: Glutathione ethyl ester (1 mmol/L, 1 μmol) was used as the trapping agent instead of the mixture of glutathione ethyl ester (GSHEE) and glutathione ethyl ester-d5 (GSHEE-d5), and the reaction and measurement were performed in the same manner as in (step 1) and (step 2) described above.
In the MS/MS measurement corresponding to (step 2-3), the MS/MS measurement was performed in a data dependent scan mode in which ions with the strongest intensity in a first spectrum were subjected to collisional activation to thereby obtain a second spectrum. The measurement conditions used are as follows (measurement conditions C).

| SMILES | judgement of reactive metabolite formation [1] | NUMBER OF IDENTIFIED REACTIVE METABOLITES (EXAMPLES) [1] | number of types of reactive metabolite found [2] | NUMBER OF IDENTIFIED REACTIVE METABOLITES (COMPARATIVE EXAMPLES, [13C2, 15N]GSH) [3] | NUMBER OF IDENTIFIED REACTIVE METABOLITES (COMPARATIVE EXAMPLES, GSHEE) [4] |
| --- | --- | --- | --- | --- | --- |
| COc1ccc2[nH]c([S+]([O-])Cc3ncc(C)c(OC)c3C)nc2c1 (centres unmarked) [omeprazole] | positive | 2 | one | 2 | 1 |
| O=C(O)Cc1ccccc1Nc1c(Cl)cccc1Cl [diclofenac] | – | – | – | – | 1 |
| O=C(O)COc1ccc(C(=O)c2cccs2)c(Cl)c1Cl [tienilic acid] | positive | 1 | – | 1 | 0 |
| O=c1c(O)c(-c2ccc(O)c(O)c2)oc2cc(O)cc(O)c12 [quercetin] | positive | 3 | – | 2 | 3 |

Reference: US9164075B2, “Glutathione alkylester isotopologue and method for detecting reactive metabolite” (priority 2011, dated 2015)
